The target of assay [1] is MC5R (Homo sapiens, UniProt P33032). Briefly: Competitive binding with 125I-NDP-MSH, HEK293 membrane preparations, MC5R. To be noted: Ki MC5R, competition with 125I-NDP-MSH; cells noted in μM.
Procedure: (§1) Binding analysis was done by Cerep laboratories (Paris, France) with coded samples.
(§2) The mixtures were filtered through 96-well GFC filters (Millipore, Billerica, Mass.), washed 3 times with binding buffer without BSA, dried and counted.
(§3) A competitive binding assay using a MCR panel including MCR 1, 3, 4, and 5 was performed.
Assay [2] deals with MC1R (Homo sapiens, UniProt Q01726). Briefly: Competitive binding with 125I-NDP-MSH, HEK293 membrane preparations, MC1R.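 As to all read-outs here: Read-out: receptor-bound radioligand retained by filtration and counted.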 To be noted: for Ki: Ki MC1R, competition with 125I-NDP-MSH.
Procedure: as §1, §2, §3
Assay [3] concerns the target MC3R (Homo sapiens, UniProt P41968). Briefly: Competitive binding with 125I-NDP-MSH, HEK293 membrane preparations, MC3R.
Procedure: as §1, §2, §3
The test system of assay [4] is B16-F1 murine melanoma cells. Put plainly: Intracellular cAMP in B16-F1 melanoma cells. The assay is classed as cell-based. To be noted: for EC50: B16-F1 cells, 10^-4-10^-11 M, 30 min, IBMX; for cAMP levels (in words): peptide at 1 μg/ml. The protocol:
B16-F1 (melanoma cell line) cells from American Type Culture Collection (Manassas, Va.) were seeded into flat bottom 96 well plates at 5×10^4/well and cultured overnight in DMEM (Cambrex, Walkersville, Md.) supplemented with 2 mM glutamine, antibiotics (100 U/ml penicillin and 100 […]) and 10% heat-inactivated fetal bovine serum (Invitrogen, Grand Island, N.Y.). […] Cells were lysed and intracellular cAMP levels were measured by an enzyme immunoassay kit (Amersham Biosciences, Piscataway, N.J.). Forskolin (Sigma, St. Louis, Mo.) at 100 μM served as positive controls.
cAMP levels in B16-F1 melanoma cells after treatment with native α-MSH, RI α-MSH, or a scrambled control peptide were examined. The […] melanoma cell line expresses a high number of MCR1 receptors (3000-4000 receptors/cell) compared with macrophages cell lines which express only 100-200 receptors/cell. Therefore we selected to examine the effect of the RI α-MSH treatment on the melanoma cell line. Murine melanoma B16-F1 cells were treated with native α-MSH, RI α-MSH, or control scrambled peptide at concentrations 1 pg/ml-1 μg/ml. After 30 min, cells were lysed and intracellular cAMP was measured by an enzyme immunoassay. […] However, a higher concentration of RI α-MSH (100 ng/ml) was necessary to increase cAMP compared with native α-MSH which increased cAMP at a 10 pg/ml concentration. This difference in concentration of peptide necessary to increase cAMP levels may be the result of the binding affinity to the MCR1 receptor.
Murine melanoma B16-F1 cells were treated with native α-MSH, RI α-MSH, scrambled peptide control, KPV, or alanine substituted peptides of RI α-MSH at 1 μg/ml (FIG. 7B). […] Peptides designated 810, 811, and 812 have alanine substitutions in the central core tetrapeptide sequence (D-Trp D-Arg D-Phe D-His region; AA 5-8) (variant disclosed in SEQ ID NO:2) proposed to be involved in native α-MSH binding to the melanocortin receptor and its biological activity. […] The residues in the core tetrapeptide (wrfh) (variant disclosed in SEQ ID NO:2) and to a lesser extent, the methionine 4 of RI-MSH are critical for binding to MC1R.
B16-F1 murine melanoma cells were cultured into 96 well plates 5×10^4 cells/well overnight in media with L-glutamine and pen/strep and FBS. Media was removed and new media with IBMX was added to the cells for 1 hr. Cells were then treated with RI α-MSH, or RI α-MSH peptide analogs (890, 891, 892, 893, 894 or 895). Cells were lysed after 30 min using a cAMP assay kit and supernatant were used in the assay. Forskolin at 10 μM served as positive controls.
Intracellular cAMP was measured using a cAMP competition Assay Kit (Amersham Biosciences). All cell lysate samples were diluted 1:100 for analysis.
Murine melanoma B16-F1 cells were treated with RI α-MSH, or RI α-MSH analogs (869, 872, 880, 878, 886 and 890-895) at a concentration range of 10^−4-10^−11 M. cAMP levels from cells treated with RI α-MSH, or RI α-MSH analogs. […] See FIG. 22 for graphical data and Table 2 for EC50 data.
On the technique in general: Changes in cAMP serve as a functional read-out for many G protein-coupled receptors.

The test system of assay [5] is C57BL/6 mice. Put plainly: MOG35-55 induced EAE model. Format: in vivo. The note with it: 2 mg/kg.

Values joined by “and” are separate entries in the source; they are usually repeats but may differ in a detail not shown here. Identical values can stand only once. Where a SMILES comes first, the peptide text is derived from it. [ ]: non-standard residue; d: D form. Bounds are passed on as bounds.

Chain of MC3R (P41968 whole entry): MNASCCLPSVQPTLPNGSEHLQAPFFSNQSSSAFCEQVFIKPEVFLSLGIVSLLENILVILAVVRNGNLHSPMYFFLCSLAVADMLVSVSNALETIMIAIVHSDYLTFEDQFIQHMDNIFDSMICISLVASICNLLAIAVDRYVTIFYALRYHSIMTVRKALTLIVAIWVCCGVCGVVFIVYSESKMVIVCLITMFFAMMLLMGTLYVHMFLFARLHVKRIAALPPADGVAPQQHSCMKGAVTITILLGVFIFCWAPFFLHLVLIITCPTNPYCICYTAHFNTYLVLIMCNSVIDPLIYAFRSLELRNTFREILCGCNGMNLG
Chain of MC5R (P33032 whole entry): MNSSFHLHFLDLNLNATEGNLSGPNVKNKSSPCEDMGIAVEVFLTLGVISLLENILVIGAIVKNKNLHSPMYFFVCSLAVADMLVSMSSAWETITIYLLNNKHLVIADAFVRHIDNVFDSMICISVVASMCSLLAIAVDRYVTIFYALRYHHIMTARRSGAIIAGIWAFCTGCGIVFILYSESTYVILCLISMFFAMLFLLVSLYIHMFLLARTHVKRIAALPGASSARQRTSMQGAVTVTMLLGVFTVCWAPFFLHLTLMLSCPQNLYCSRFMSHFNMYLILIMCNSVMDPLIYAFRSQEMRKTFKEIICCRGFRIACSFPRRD
Chain of MC1R (Q01726 whole entry): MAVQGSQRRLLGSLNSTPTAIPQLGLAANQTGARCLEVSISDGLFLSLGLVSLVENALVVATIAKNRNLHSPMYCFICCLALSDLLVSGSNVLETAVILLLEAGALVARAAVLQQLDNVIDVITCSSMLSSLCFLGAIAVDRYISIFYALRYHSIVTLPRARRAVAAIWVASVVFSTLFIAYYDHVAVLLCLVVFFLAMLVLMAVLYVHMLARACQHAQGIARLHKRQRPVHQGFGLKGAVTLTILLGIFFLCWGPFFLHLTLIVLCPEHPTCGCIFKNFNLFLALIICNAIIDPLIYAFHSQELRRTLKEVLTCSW

Take `CSCC[C@@H](NC(=O)[C@@H](CCC(=O)O)NC(=O)[C@@H](Cc1c[nH]cn1)NC(=O)[C@H](Cc1ccccc1)NC(=O)[C@@H](CCCNC(=N)N)NC(=O)[C@@H](Cc1c[nH]c2ccccc12)NC(=O)CNC(=O)[C@@H](CCCCN)NC(=O)[C@H]1CCCN1C(=O)[C@H](NC(C)=O)C(C)C)C(=O)N[C@H](CO)C(=O)N[C@H](Cc1ccc(O)cc1)C(=O)N[C@H](CO)C(N)=O` [compound 884, vpkGwrFhemsys]: the values for the inhibition constant (Ki) in assay [1], in assay [2] and in assay [3] were > 30 µM, 72 nM and > 30000 nM, respectively. Moreover, the “reduction in binding to MC1R, inversion of D-Phe to L-Phe in the RI sequence” value in assay [2] (relative to RI-MSH) turned out to be 20 fold.
With `CSCC[C@@H](NC(=O)[C@@H](CCC(=O)O)NC(=O)[C@@H](Cc1c[nH]cn1)NC(=O)[C@@H](Cc1ccccc1)NC(=O)[C@H](CCCNC(=N)N)NC(=O)[C@@H](Cc1c[nH]c2ccccc12)NC(=O)CNC(=O)[C@@H](CCCCN)NC(=O)[C@H]1CCCN1C(=O)[C@H](NC(C)=O)C(C)C)C(=O)N[C@H](CO)C(=O)N[C@H](Cc1ccc(O)cc1)C(=O)N[C@H](CO)C(N)=O` [compound 894, vpkGwRfhemsys], the results for the Ki in assay [1], in assay [2] and in assay [3] were > 30 µM, 380 nM and > 30000 nM, respectively. Besides, the EC50 – broadly, the midpoint of the concentration-response curve – in assay [4] was 212000 nM.
For the compound `CSCC[C@@H](NC(=O)[C@@H](CCC(=O)O)NC(=O)[C@@H](C)NC(=O)[C@@H](Cc1ccccc1)NC(=O)[C@@H](CCCNC(=N)N)NC(=O)[C@@H](Cc1c[nH]c2ccccc12)NC(=O)CNC(=O)[C@@H](CCCCN)NC(=O)[C@H]1CCCN1C(=O)[C@H](NC(C)=O)C(C)C)C(=O)N[C@H](CO)C(=O)N[C@H](Cc1ccc(O)cc1)C(=O)N[C@H](CO)C(N)=O` [compound 809, vpkGwrfaemsys] (Ac-[dV][dP][dK]G[dW][dR][dF][dA][dE][dM][dS][dY][dS]-NH2), in assay [4], the “cAMP levels (in words)” value was “reduction in cAMP accumulation”. Also, the affinity in assay [2] corresponds to a Ki of 1200 ± 270 nM.
As for `CSCC[C@@H](NC(=O)[C@@H](CCC(=O)O)NC(=O)[C@@H](Cc1c[nH]cn1)NC(=O)[C@@H](C)NC(=O)[C@@H](CCCNC(=N)N)NC(=O)[C@@H](Cc1c[nH]c2ccccc12)NC(=O)CNC(=O)[C@@H](CCCCN)NC(=O)[C@H]1CCCN1C(=O)[C@H](NC(C)=O)C(C)C)C(=O)N[C@H](CO)C(=O)N[C@H](Cc1ccc(O)cc1)C(=O)N[C@H](CO)C(N)=O` [compound 810, vpkGwrahemsys], the “cAMP levels (in words)” value in assay [4] is given as “no increase in cAMP activity”.
As for `CC(=O)N[C@@H](C(=O)N1CCC[C@@H]1C(=O)N[C@H](CCCCN)C(=O)NCC(=O)N[C@H](Cc1c[nH]c2ccccc12)C(=O)N[C@H](CCCNC(=N)N)C(=O)N[C@H](Cc1ccccc1)C(=O)N[C@H](Cc1c[nH]cn1)C(=O)N[C@H](CCC(=O)O)C(=O)N[C@H](C)C(=O)N[C@H](CO)C(=O)N[C@H](Cc1ccc(O)cc1)C(=O)N[C@H](CO)C(N)=O)C(C)C` [compound 807, vpkGwrfheasys] (Ac-[dV][dP][dK]G[dW][dR][dF][dH][dE][dA][dS][dY][dS]-NH2), the “cAMP levels (in words)” value in assay [4] is reported as “reduction in cAMP accumulation”. The Ki (usually the dissociation constant of the complex between target and ligand, obtained from inhibition or displacement) in assay [2] came out at 1400 ± 190 nM.
Regarding `CSCC[C@@H](NC(=O)[C@@H](CCC(=O)O)NC(=O)[C@@H](Cc1c[nH]cn1)NC(=O)[C@@H](Cc1ccccc1)NC(=O)[C@@H](CCCNC(=N)N)NC(=O)[C@@H](C)NC(=O)CNC(=O)[C@@H](CCCCN)NC(=O)[C@H]1CCCN1C(=O)[C@H](NC(C)=O)C(C)C)C(=O)N[C@H](CO)C(=O)N[C@H](Cc1ccc(O)cc1)C(=O)N[C@H](CO)C(N)=O` [compound 812, vpkGarfhemsys] (Ac-[dV][dP][dK]G[dA][dR][dF][dH][dE][dM][dS][dY][dS]-NH2), in assay [4], the “cAMP levels (in words)” value is “no increase in cAMP activity”.
On to `C[C@@H]1C[C@H]2[C@@H]3CCC4=CC(=O)C=C[C@]4(C)[C@@]3(F)[C@@H](O)C[C@]2(C)[C@@]1(O)C(=O)CO` [Dexamethasone, dexamethasone, reference compound], for which, in assay [5], the “maximum percent incidence of disease” value is recorded as 40%.
For the compound `CSCC[C@@H](NC(=O)[C@@H](CCC(=O)O)NC(=O)[C@H](Cc1c[nH]cn1)NC(=O)[C@@H](Cc1ccccc1)NC(=O)[C@@H](CCCNC(=N)N)NC(=O)[C@@H](Cc1c[nH]c2ccccc12)NC(=O)CNC(=O)[C@@H](CCCCN)NC(=O)[C@H]1CCCN1C(=O)[C@H](NC(C)=O)C(C)C)C(=O)N[C@H](CO)C(=O)N[C@H](Cc1ccc(O)cc1)C(=O)N[C@H](CO)C(N)=O` [compound 895, vpkGwrfHemsys], the Ki in assay [1] was ~37 µM; in assay [2], 19 nM; in assay [3], ~37000 nM. Further, the response in assay [4] was half-maximal at 300 nM (EC50).
As for `CSCC[C@@H](NC(=O)[C@@H](CCC(=O)O)NC(=O)[C@@H](Cc1c[nH]cn1)NC(=O)[C@@H](Cc1ccccc1)NC(=O)[C@@H](C)NC(=O)[C@@H](Cc1c[nH]c2ccccc12)NC(=O)CNC(=O)[C@@H](CCCCN)NC(=O)[C@H]1CCCN1C(=O)[C@H](NC(C)=O)C(C)C)C(=O)N[C@H](CO)C(=O)N[C@H](Cc1ccc(O)cc1)C(=O)N[C@H](CO)C(N)=O` [compound 811, vpkGwafhemsys] (Ac-[dV][dP][dK]G[dW][dA][dF][dH][dE][dM][dS][dY][dS]-NH2), in assay [4], the “cAMP levels (in words)” value is listed as “no increase in cAMP activity”.
In turn, `CSCC[C@@H](NC(=O)[C@@H](CCC(=O)O)NC(=O)[C@@H](CCCNC(=N)N)NC(=O)[C@@H](Cc1ccccc1)NC(=O)[C@@H](CCCNC(=N)N)NC(=O)[C@@H](Cc1c[nH]c2ccccc12)NC(=O)CNC(=O)[C@@H](CCCCN)NC(=O)[C@H]1CCCN1C(=O)[C@H](NC(C)=O)C(C)C)C(=O)N[C@H](CO)C(=O)N[C@H](Cc1ccc(O)cc1)C(=O)N[C@H](CO)C(N)=O` [compound 872, vpkGwrfremsys] yielded an EC50 in assay [4] of 2000 nM. The affinity in assay [2] corresponds to a Ki of 13.5 nM.
In the case of `C=C[C@@]1(C)CC(=O)[C@]2(O)[C@@]3(C)[C@@H](O)CCC(C)(C)[C@@H]3[C@H](O)[C@H](OC(C)=O)[C@@]2(C)O1` [Forskolin, reference compound], the cAMP in assay [4] (100 μM, positive control) is 3455.39±406.6 and 3294.82±54.53.
For `CSCC[C@H](NC(=O)[C@H](CO)NC(=O)[C@H](Cc1ccc(O)cc1)NC(=O)[C@H](CO)NC(C)=O)C(=O)N[C@@H](CCC(=O)O)C(=O)N[C@@H](Cc1c[nH]cn1)C(=O)N[C@@H](CC1CCCCC1)C(=O)N[C@@H](CCCNC(=N)N)C(=O)N[C@@H](Cc1c[nH]c2ccccc12)C(=O)NCC(=O)N[C@@H](CCCCN)C(=O)N1CCC[C@H]1C(=O)N[C@H](C(N)=O)C(C)C` [compound 892, SYSMEH(L-Cha)RWGKPV], in assay [4], the response was half-maximal at 21 nM (EC50). Further, in assay [2], the Ki is 0.51 nM.
For `CSCC[C@@H](NC(=O)[C@@H](CCC(=O)O)NC(=O)[C@@H](Cc1c[nH]cn1)NC(=O)[C@@H](Cc1ccccc1)NC(=O)[C@@H](CCCNC(=N)N)NC(=O)[C@H](Cc1c[nH]c2ccccc12)NC(=O)CNC(=O)[C@@H](CCCCN)NC(=O)[C@H]1CCCN1C(=O)[C@H](NC(C)=O)C(C)C)C(=O)N[C@H](CO)C(=O)N[C@H](Cc1ccc(O)cc1)C(=O)N[C@H](CO)C(N)=O` [compound 893, vpkGWrfhemsys], the Ki is ~27 µM in assay [1], 6.5 nM in assay [2] and ~28000 nM in assay [3]. In assay [4], this compound showed an EC50 of 270 nM.

The values are drawn from patent publication US10385108B2, “Peptide analogs of alpha-melanocyte stimulating hormone” (Genzyme Corporation, priority 2008, dated 2019).
